Experimental data: patent US6806257B1, “Flavones as inducible nitric oxide synthase inhibitors, cyclooxygenase-2 inhibitors and potassium channel activators” (priority 1999, dated 2004)
“Also recorded” adds a separate entry of the source. Read-outs that look alike come from different tables or passages of the source. Marks after values point to notes of the source that are not given here.

Tests used:
[1] = test system: nNOS; test: nNOS expression in cultured primary smooth muscle cells from porcine cerebral arteries; assay type: cell-based; settings: 30 μM and 60 μM
[2] = test system: COX-2; test: LPS-induced COX-2 expression in RAW264.7 macrophages (western/northern blot); assay type: cell-based, mouse
Method: (§1) Cells. RAW264.7, a mouse macrophage cell line, was obtained from American Type Culture Collection. Cells were cultured in RPMI-1640 medium (available from Gibco Life Technology, in Gaithersburg, Md.) supplemented with 2 mM L-glutamine, antibiotics (100 units/ml penicillin-A and 100 units/ml streptomycin) and 10% heat-inactivated fetal bovine serum (Gibco/BRL) and maintained at 37° C in a humidified incubator containing 5% CO2.
(§2) Western blots. Total cellular extract, cytosolic fractions (for IkB) and nuclear fraction (for p65 antibody) were prepared according to Muller et al., Immunobiology, 187, 233-256, 1993 and separated on sodium dodecyl sulfatepolyacrylamide minigels (8% for iNOS or COX-2, and 10% for IkB or p65) and transferred to immobilon polyvinylidene difluoride membranes (Millipore, Bedford, Mass.). The membrane was incubated overnight at 4° C. with 1% bovine serum albumin and then incubated with anti-iNos, COX-2, α-Tubulin monoclonal antibodies (Transduction Laboratories, Lexington, Ky.), anti-IkB or anti-p65 polyclonal antibodies (Santa Cruz Biochemicals, Santa Cruz, Calif.). iNOS, IkB, p65, Cox-2, α-Tubulin were detected by NBT and BCIP staining (Sigma Chemical Co., St. Louis, Mo.).

[3] = test system: porcine cerebral arteries; test: In vitro tissue bath vasorelaxation of precontracted porcine cerebral arteries; settings: for EC50: Sus scrofa; for U-46619-induced active muscle tone: 0.1-30 μM
[4] = test system: iNOS; test: LPS-induced iNOS expression in RAW264.7 macrophages (western/northern blot); assay type: cell-based, mouse
Method: as §1, §2
Northern blot analysis. Total RNA (20 μg/lane) were separated by electrophoresis on 1.2% agarose gel containing 6.7% formaldehyde and transformed to a Hybond-N nylon membrane (American Life Science) in 20×standard saline citrate (3 M sodium chloride and 0.3 M sodium citrate, pH 7.0). After heating at 80° C. for 2 hours and prehybridization for 4 hours, the filters were hybridized with ^32P-labeled murine iNOS cDNA probes at a concentration of 3×10^6 cpm/ml for 16-18 hours at 42° C. The probe was labeled with [α-32P] dCTP by using Random Primer labeling kit (Stratagene, La Jolla, Calif.). Then, the filters were washed, dried and autoradiographed with Kodak-X-Omat XAR-film using intensifying screens at −80° C.

[5] = test system: LPS-induced NO production in RAW264.7 macrophages; test: LPS-induced nitrite (NO) production in RAW264.7 macrophages, Griess reaction; assay type: cell-based, mouse; settings: 5, 10 or 20 μg/ml together with 100 ng/ml LPS for 24 hours
Method: as §1
Nitrite assay. The nitrite concentration in the medium was measured as an indicator of NO production according to the Griess reaction (Kim et al., J. Immunol. 153: 4741-4748). One hundred microliters of each supernatant was. mixed with the same volume of Griess reagent (1% sulfanilamide in 5% phosphoric acid and 0. 1% naphthylethylenediamine dihydrochloride in water); absorbency of the mixture at 550 nm was determined with an enzyme-linked immunosorbent assay plate reader (Dynatech MR-7000; Dynatech Labs, Chantilly, Va.).
The effects of flavonoids, ellagitannins, anthraquinones on LPS-induced NO production in macrophages were studied as follows. The chemical structures of two flavonoids (myricitrin, N1; oroxylin A, N2) four ellagitannins (penta-O-galloyl-β-glucopyranose, N3; woodfordin C, N4; onothein B, N5; cuphiin, N6), and two anthraquinones (emodin, N7; physcion, N8) that were used in the present study were shown in FIG. 1. The effects of these eight compounds on NO production in RAW264.7 macrophages were investigated. The accumulated nitrite in the culture medium was used as an index for NO synthesis from these cells. […]

[6] = test system: NF-kB (p65) / IkB; test: Nuclear p65 / cytosolic IkB western blot in LPS-treated RAW264.7 macrophages; assay type: cell-based, mouse; settings: 20 μg/ml, 100 ng/ml LPS for 30 minutes
Method: as §2
NF-kB is a transcription factor that is activated in response to stimulation by LPS, and activation of NF-kB is an essential factor in inducing iNOS gene expression in macrophages (Kim, Y. M., Biochem. Biophys. Res. Commun. 236, 655-660, 1997). To assess the effect of these compounds (20 μg/ml) on early stage of iNOS gene expression, the activation of NF-kB in RAW264.7 macrophages was examined using the electrophoretic mobility shift assay (EMSA) (FIGS. 6i and 6ii).

[7] = conclusion from blocker experiments

SMILES: COc1c(O)cc2oc(-c3ccccc3)cc(=O)c2c1O [oroxylin A, 5,7-dihydroxy-6-methoxy flavone]
- expression of nNOS [1]: did not affect
- LPS-induced COX-2 gene expression (protein and mRNA) [2]: most potent among the compounds tested; also recorded: inhibited
- transient relaxation ([3]; 60 μM, KCl (80 mM)-pre-contracted arterial rings, n=5): 20.2±1.63 % of PPV-induced maximum relaxation
- relaxation ([3]; 60 μM, same arteries contracted with U-46619, n=5): 95.1±4.31 % of PPV-induced maximum relaxation
- sustained relaxation in KCl-precontracted arteries ([3]; 80 mM KCl, 1-60 μM, with or without endothelial cells): did not induce sustained relaxation; also recorded: failed to induce sustained relaxation
- Percent of Maximum Control Relaxation ([3]; Oroxylin A 3 μM, after 4-AP (10 mM)): 1.8 ± 1.6%
- Percent of Maximum Control Relaxation ([3]; Oroxylin A 3 μM, after ETI (10 μM)): 21.4 ± 2.1%
- Percent of Maximum Control Relaxation ([3]; Oroxylin A 3 μM, after GLP (30 μM)): 24.6 ± 3.4%
- Percent of Maximum Control Relaxation ([3]; Oroxylin A 3 μM, after IBT (100 nM)): 16.8 ± 3.1%
- Percent of Maximum Control Relaxation ([3]; Oroxylin A 3 μM, after INDO (30 μM)): 23.0 ± 1.8%
- Percent of Maximum Control Relaxation ([3]; Oroxylin A 3 μM, after L-NNA (60 μM)): 26.9 ± 3.4%
- Percent of Maximum Control Relaxation ([3]; Oroxylin A 3 μM, after MCN (5 μM)): 21.2 ± 3.4%
- Percent of Maximum Control Relaxation ([3]; Oroxylin A 3 μM, after TEA (1 mM)): 7.1 ± 3.0%
- Percent of Maximum Control Relaxation ([3]; Oroxylin A 3 μM, after TEA (10 mM)): 0** Percent
- Percent of Maximum Control Relaxation ([3]; Oroxylin A 3 μM, control (no inhibitor), n=12): 24.6 ± 1.9%
- Percent of Maximum Control Relaxation ([3]; Oroxylin A 10 μM, after 4-AP (10 mM)): 9.7 ± 2.0%
- Percent of Maximum Control Relaxation ([3]; Oroxylin A 10 μM, after ETI (10 μM)): 41.3 ± 4.4%
- Percent of Maximum Control Relaxation ([3]; Oroxylin A 10 μM, after GLP (30 μM)): 46.5 ± 7.1%
- Percent of Maximum Control Relaxation ([3]; Oroxylin A 10 μM, after IBT (100 nM)): 30.8 ± 5.2%
- Percent of Maximum Control Relaxation ([3]; Oroxylin A 10 μM, after INDO (30 μM)): 41.8 ± 5.6%
- Percent of Maximum Control Relaxation ([3]; Oroxylin A 10 μM, after L-NNA (60 μM)): 45.3 ± 6.0%
- Percent of Maximum Control Relaxation ([3]; Oroxylin A 10 μM, after MCN (5 μM)): 37.4 ± 4.5%
- Percent of Maximum Control Relaxation ([3]; Oroxylin A 10 μM, after TEA (1 mM)): 31.5 ± 6.6%
- Percent of Maximum Control Relaxation ([3]; Oroxylin A 10 μM, after TEA (10 mM)): 4.87 ± 1.5%
- Percent of Maximum Control Relaxation ([3]; Oroxylin A 10 μM, control (no inhibitor), n=12): 49.0 ± 3.4%
- Percent of Maximum Control Relaxation ([3]; Oroxylin A 30 μM, after 4-AP (10 mM)): 28.4 ± 6.7%
- Percent of Maximum Control Relaxation ([3]; Oroxylin A 30 μM, after ETI (10 μM)): 91.4 ± 1.5%
- Percent of Maximum Control Relaxation ([3]; Oroxylin A 30 μM, after GLP (30 μM)): 84.2 ± 7.1%
- Percent of Maximum Control Relaxation ([3]; Oroxylin A 30 μM, after IBT (100 nM)): 68.1 ± 7.2%
- Percent of Maximum Control Relaxation ([3]; Oroxylin A 30 μM, after INDO (30 μM)): 89.1 ± 3.6%
- Percent of Maximum Control Relaxation ([3]; Oroxylin A 30 μM, after L-NNA (60 μM)): 91.9 ± 2.8%
- Percent of Maximum Control Relaxation ([3]; Oroxylin A 30 μM, after MCN (5 μM)): 87.2 ± 2.6%
- Percent of Maximum Control Relaxation ([3]; Oroxylin A 30 μM, after TEA (1 mM)): 58.6 ± 6.7%
- Percent of Maximum Control Relaxation ([3]; Oroxylin A 30 μM, after TEA (10 mM)): 16.3 ± 2.0%
- Percent of Maximum Control Relaxation ([3]; Oroxylin A 30 μM, control (no inhibitor), n=12): 86.0 ± 2.6%
- EC50 ([3]; after ETI (10 μM), read-out: EC50): 8.1 µM
- EC50 ([3]; after GLP (30 μM), read-out: EC50): 11.2 µM
- EC50 ([3]; after IBT (100 nM), read-out: EC50): 15 µM
- EC50 ([3]; after INDO (30 μM), read-out: EC50): 10 µM
- EC50 ([3]; after L-NNA (60 μM), read-out: EC50): 11.4 µM
- EC50 ([3]; after MCN (5 μM), read-out: EC50): 10.5 µM
- EC50 ([3]; after TEA (1 mM), read-out: EC50): 21.5 µM
- EC50 ([3]; after TEA (10 mM), read-out: EC50): 39.3 µM
- EC50 ([3]; control (no inhibitor), n=12, read-out: EC50): 8.4 µM
- EC50 ([3]; endothelium-denuded arteries, U-46619, n=12, read-out: EC50 of relaxation): 8.4 µM
- EC50 ([3]; intact endothelium, pre-contracted with U-46619 (1 μM), n=4, read-out: EC50 of relaxation): 7.9 µM
- U-46619-induced active muscle tone ([3]; U-46619 (1 μM)): concentration-dependant inhibition
- U-46619-induced active muscle tone ([3]; U-46619 (1 μM), listed as Oroxylin A): in a concentration-dependent manner decreased
- Ca2+-activated K+ channel opening [3, 7]: is a Ca^2+— activated K^+ channel opener
- KATP channel opening [3, 7]: is not a KATP channel opener
- concentration at which maximum relaxation was achieved ([3]; intact endothelium, U-46619 (1 μM)): 30 µM
- blocking LPS-induced iNOS gene expression, comparison among compounds tested [4]: most potent among the compounds tested
- LPS-induced iNOS protein ([4]; 100 ng/ml LPS, western blot): inhibited LPS-induced iNOS protein in a concentration-dependent manner
- LPS-induced nitrite production [5]: significant inhibition
- LPS-induced increase of nuclear p65 and decrease of cytosolic IkB [6]: significantly inhibited
